Laboratory results reported in US6713051B2, “Antiperspirant or deodorant compositions” (Unilever Home & Personal Care USA division of Conopco, Inc., priority 2001, dated 2004).

Molecular target: T1, human PPARα (Homo sapiens, UniProt Q07869)
T1 construct: The coding region of a human PPARα cDNA was inserted downstream of the CMV promoter; expressed in transfected cells; host or cells: Cos-7 cells, transient transfection (pcDNA3.1(−)-PPARα, pRSV-RXRα, 3xPPRE-TK-luc reporter, pRL-TK)
T1 sequence (Q07869 1-468): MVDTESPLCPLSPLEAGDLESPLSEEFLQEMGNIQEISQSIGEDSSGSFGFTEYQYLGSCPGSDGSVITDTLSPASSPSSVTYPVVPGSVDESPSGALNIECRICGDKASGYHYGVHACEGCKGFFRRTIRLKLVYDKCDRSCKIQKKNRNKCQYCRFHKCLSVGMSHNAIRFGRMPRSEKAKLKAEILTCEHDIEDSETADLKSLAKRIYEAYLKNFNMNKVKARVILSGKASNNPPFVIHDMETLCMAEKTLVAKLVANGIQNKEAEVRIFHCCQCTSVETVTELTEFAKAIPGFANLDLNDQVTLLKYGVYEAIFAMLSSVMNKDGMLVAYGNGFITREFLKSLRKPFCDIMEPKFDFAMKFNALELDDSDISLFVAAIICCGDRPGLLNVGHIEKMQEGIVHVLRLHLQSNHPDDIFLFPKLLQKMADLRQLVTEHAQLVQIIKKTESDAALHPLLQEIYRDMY
T1 sequence (P19793 1-462 partner): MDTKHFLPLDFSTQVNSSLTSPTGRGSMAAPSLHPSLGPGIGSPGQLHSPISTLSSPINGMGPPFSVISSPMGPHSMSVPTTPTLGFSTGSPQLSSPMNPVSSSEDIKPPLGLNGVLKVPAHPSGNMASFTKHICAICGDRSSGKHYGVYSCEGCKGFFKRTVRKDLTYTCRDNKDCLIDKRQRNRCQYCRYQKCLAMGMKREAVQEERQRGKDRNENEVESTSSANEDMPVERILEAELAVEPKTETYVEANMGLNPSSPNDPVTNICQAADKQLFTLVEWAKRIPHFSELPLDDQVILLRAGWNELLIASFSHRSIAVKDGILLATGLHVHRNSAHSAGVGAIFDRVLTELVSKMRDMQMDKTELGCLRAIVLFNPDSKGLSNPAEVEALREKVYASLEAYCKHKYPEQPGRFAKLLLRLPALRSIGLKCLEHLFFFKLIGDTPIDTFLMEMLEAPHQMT
Assay: PPARα reporter gene assay (firefly luciferase, transiently transfected Cos-7 cells)
Type: cell-based

`CC\C=C/C=C/C=C/C=C\CCCCCCCC(=O)O` [cis parinaric acid, cis-parinaric acid] was tested. Which “Result at (lowest administration level at which super or MS activity was achieved)” value did it give?
Its value is 25 μm.

What about the “Result (superior activity class achieved)” value (class reached) of the same compound?
Its value is “super (superior activity [super] (50% higher—at least 2.25 times PPARα activation))”.

And the “Pass at (lowest tested administration level at which the test material passed)” value (pass = activation greater than oleic acid at 100 μM, commonly >1.57 times vehicle control, 24 h treatment)?
The value was 10 μm.
